# Read-outs that look alike come from different tables or passages of the source. Marks after values point to notes of the source that are not given here.
# Legend:
# [1] = Epithelial lining fluid (ELF) GSH concentration in dexamethasone treated mice; assay type: in vivo, Wild type (C57/B6) mice; settings: 1 mg/kg intraperitoneal daily for two days, BALF at 48 hours; mean±standard error
# Procedure: FIG. 17 Dexamethasone-Induced Changes in Epithelial Lining Fluid (ELF) Glutathione (GSH) Concentrations. Wild type (C57/B6) mice were given a 1 mg/kg dexamethasone (DEX) injection (intraperitoneal) daily for two days. Bronchoalveolar lavage fluid (BALF) was obtained at 48 hours after the first initial dose and GSH concentrations determined. BALF was obtained through a tracheal canula with a single 2.0 mL aliquots of phosphate-buffered saline (pH 7.4) that was instilled into the lung and withdrawn only once. The BALF was centrifuged at 4000×g to remove cells (i.e., alveolar macrophages). The cell-free BALF was acidified with metaphosphoric acid to a final concentration of 1% metaphosphoric acid and centrifuged at 20,000×g to pellet the precipitated proteins. GSH concentrations were determined by HPLC coupled with electrochemical detection. ELF concentrations of GSH were calculated from BALF concentrations multiplied by a dilution factor derived from the difference in serum and BALF urea concentrations. […] Data are shown as the mean±standard error for n≧4 with significance attained at p≦0.05.
# Serum and BALF Urea Concentrations. […] ELF concentrations are then calculated by multiplying the BALF concentrations by the dilution factor. Urea concentrations in the samples are determined using a commercially available reagent (Sigma Diagnostics 66-20; St. Louis, Mo.).
# epithelial cells [2] = test: Effects of compounds on extracellular GSH transport (Table 3); assay type: cell-based; settings: Epithelial cell, read-out: % Increase Over Control (extracellular GSH)
# A549 cells [3] = test: Cytotoxicity as LDH release in A549 cells; assay type: cell-based, human
# Procedure: (§1) Cell lines and culture conditions. Human lung epithelial cancer (A549), human leukemia HL-60 and human prostate (PC-3) tumor cells were purchased from ATCC (Manassas, Va.). A549 and PC-3 cells were grown in Ham's F12 medium (F12) and Kaighn's modification of Ham's F12 medium (F12K) with 2 mM L-glutamine (ATCC), respectively, supplemented with 10% fetal bovine serum (FBS) and 5% pen/strep (10,000 unit, Cellgro). HL-60 cells were grown in Iscove's modified Dulbecco's medium with 4 mM L-glutamine (ATCC) supplemented with 20% FBS and 5% pen/strep. Cell were grown in T-75 flask at 37° C. and 5% CO2 air atmosphere and in 24-well plates for GSH levels and LDH release measurements.
# (§2) Assessment of cytotoxicity. In one exemplary method, membrane integrity of A549, HL-60 and PC-3 cells was used as an index of drug-induced cytotoxicity, and was assessed by monitoring the release of cytosolic lactate dehydrogenase (LDH). LDH activity was measured in the culture medium and cell lysates (50 mM HEPES, Triton X-100 0.5%, pH 7) using a plate reader format as previously described (41). Briefly, 5 μl of cell culture supernatant and lysates were incubated with 0.24 mM NADH in a Tris/NaCl pH 7.2 buffer in 96-well plates for 5 min at 25° C. The reaction was started by the addition of 9.8 mM pyruvate and the consumption of NADH followed at 340 nm for 5 min at 30° C. Percent LDH release was calculated by the following: (supernatant LDH/supernatant LDH+lysate LDH)×100.
# A549 cells [4] = test: Intracellular GSH levels by HPLC-EC in A549 cells; assay type: cell-based, human; settings: for activity at 25 µM: Homo sapiens, A549, 25 μM
# Procedure: as §1
# (§3) Intracellular levels of GSH. Intracellular GSH levels can be determined by HPLC-EC. Cultured cells from 24-well plates were washed once with 1 ml of PBS and then re-suspended in 0.5 ml of distilled water with 40 μM of digitonin (2 mM stock solution in DMSO) for 30 min at room temperature. Then, 50 μl of 10% meta-phosphoric acid were added (1% final concentration), the samples were sonicated for 2 min, centrifuged at 20,000 g for 10 min, and 0.2 ml of supernatant placed in vials for HPLC analysis. […] The flow rate was […]. The retention time for GSH in these conditions was 7.5 min. The HPLC instrument was from ESA, Inc. (Chelmsford, Mass.), equipped with an autosampler (model 540) and a Coul array detector (model 5600A). The potential applied was +0.75 V vs. H/Pd electrode, and the injection volume 5 μl.
# PC-3 cells [5] = test: Cytotoxicity as LDH release in PC-3 cells; assay type: cell-based, human; settings: for LDH release, % of control at 50 µM: Homo sapiens, PC-3, 50 μM, 48 hours treatment, read-out: LDH rel. % con.
# Procedure: as §1, §2
# PC-3 cells [6] = test: Intracellular GSH levels by HPLC-EC in PC-3 cells; assay type: cell-based, human; settings: for activity at 25 µM: Homo sapiens, PC-3, 25 μM, 24 hours treatment, read-out: Int. GSH % con.
# Procedure: as §1, §3
# epithelial cells [7] = test: Extracellular GSH transport, Transwell Studies (Table 3); assay type: cell-based; settings: 100 μM
# HL-60 cells [8] = test: Intracellular GSH levels by HPLC-EC in HL-60 cells; assay type: cell-based, human
# Procedure: as §1, §3
# HL-60 cells [9] = test: Cytotoxicity as LDH release in HL-60 cells; assay type: cell-based, human
# Procedure: as §1, §2
# HL-60 cells [10] = test: Cellular superoxide by flow cytometry with hydroethidine in HL-60 cells; assay type: cell-based, human
# Procedure: Flow cytometry. In one exemplary method, cellular superoxide (O2^−) was measured by flow cytometry analysis using hydroethidine (HE) (30). Untreated and treated HL-60 cells (approximately 10^6) were exposed to HE (1 μM from 1 mM stock solutions in DMSO) for 30 min, then were centrifuged at 3,500 g for 15 min, and washed once with 1 ml ice-cold PBS. Cells were re-suspended in 0.5 ml ice-cold PBS, and HE oxidation product, i.e., ethidium bromide (EB), analyzed within 30 min using the red channel (PE) of a FACSCalibur flow cytometer from Becton Dickinson Biosciences (San Jose, Calif.). The total number of cell counts was 25,000.
# [11] = 2 h, read-out: Intracellular GSH levels, % compared to control
# [12] = 4 h, read-out: Intracellular GSH levels, % compared to control
# [13] = 24 hours treatment, read-out: Int. GSH % con.
smiles,measurement,setting,value
"C[C@@H]1C[C@H]2[C@@H]3CCC4=CC(=O)C=C[C@]4(C)[C@@]3(F)[C@@H](O)C[C@]2(C)[C@@]1(O)C(=O)CO [Dexamethasone, 9-fluoro-11 b,17,21-trihydroxy-16a-methylpregna-1,4-diene-3,20-dione, reference compound]",ELF concentrations of GSH,[1],75.3 ± 12.0 µM
same,activation at 50 µM,epithelial cells [2]; 50 μM,178%
"COc1ccc2c(c1)c(CC(=O)O)c(C)n2C(=O)c1ccc(Cl)cc1 [Indomethacin, 1-(4-chlorobenzoyl)-5-methoxy-2-methyl-1H-indole-3-acetic acid, reference compound]","LDH release, % of control at 50 µM","A549 cells [3]; Homo sapiens, A549, 50 μM, 48 hours treatment, read-out: LDH rel. % con.",251%
same,activity at 25 µM,A549 cells [4]; [11],71.4 ± 2.8%
same,activity at 25 µM,A549 cells [4]; [12],7.8 ± 1.2%
same,activity at 25 µM,A549 cells [4]; [13],< 5%
same,"LDH release, % of control at 50 µM",PC-3 cells [5],122%
same,activity at 25 µM,PC-3 cells [6],75%
same,% Increase Over Control (extracellular GSH),epithelial cells [7],136 ^a %
same,activity at 25 µM,"HL-60 cells [8]; Homo sapiens, HL-60, 25 μM, 24 hours treatment, read-out: Int. GSH % con.",49%
same,activation at 100 µM,epithelial cells [2]; 100 μM,235%
same,"LDH release, % of control at 25 µM","HL-60 cells [9]; Homo sapiens, HL-60, 25 μM, 48 hours treatment, read-out: LDH rel. % con.",126%
"O=c1cc(-c2ccccc2)oc2cc(O)cc(O)c12 [Chrysin, 5,7 dihydroxyflavone]",effect on the toxicity of etoposide,"A549 cells [3]; A549 cells, 48 hours, etoposide (10 µM)",failed to potentiate etoposide's toxicity
same,toxicity,"A549 cells [3]; A549 cells, after 48 hours of treatment",relatively low toxicity
same,"LDH release, % of control at 75 µM","A549 cells [3]; Homo sapiens, A549, 75 μM, 48 hours treatment, read-out: LDH rel. % con.",225%
same,effect on intracellular GSH (words),A549 cells [4]; A549 cells,very potent inducer of intracellular GSH depletion
same,depletion of intracellular GSH,"A549 cells [4]; A549 cells, 25 μM, 2 hours of treatment",50%
same,effect on intracellular GSH (words),"A549 cells [4]; A549 cells, listed as chrysin",one active flavone-like structure for inducing GSH depletion
same,activity at 25 µM,A549 cells [4]; [11],47.2 ± 4%
same,activity at 25 µM,A549 cells [4]; [12],5.2 ± 0.5%
same,activity at 25 µM,A549 cells [4]; [13],< 5%
same,"LDH release, % of control at 50 µM",PC-3 cells [5],132%
same,"effect on curcumin-induced toxicity, LDH release","PC-3 cells [5]; PC-3 cells, 48 hours (FIG. 20C)",potentiated
same,"effect on the toxicities of rotenone (20 μM), 2-ME (50 μM) and etoposide (40 μM)","PC-3 cells [5]; PC-3 cells, 48 hours, compound 10-20 μM",potentiated
same,activity at 25 µM,PC-3 cells [6],51%
same,"intracellular GSH, combination with curcumin",PC-3 cells [6]; PC-3 cells (data not shown),resulted in GSH depletion
same,depletion of intracellular GSH,"PC-3 cells [6]; PC-3 cells, 25 μM, 24 hours",50%
same,O2^− levels on adding compound to curcumin treatment,HL-60 cells [10]; HL-60 cells (FIG. 21B),"no increase of O2^− levels was observed, but rather a decrease after 4 hours"
same,O2^− levels,"HL-60 cells [10]; HL-60 cells, 25 μM (FIG. 21B)",little change in O2^− levels
same,effect on intracellular GSH (words),HL-60 cells [8]; HL-60 cells,one active flavone-like structure for inducing GSH depletion
same,intracellular GSH levels in presence of curcumin,HL-60 cells [8]; HL-60 cells (FIG. 20B),induced GSH depletion in presence of curcumin
same,depletion of intracellular GSH,"HL-60 cells [8]; HL-60 cells, 50 μM, 24 hours",50%
same,activity at 50 µM,"HL-60 cells [8]; Homo sapiens, HL-60, 50 μM, 24 hours treatment, read-out: Int. GSH % con.",40%
same,toxicity,"HL-60 cells [9]; HL-60 cells, 25 μM (FIG. 20A)",not toxic
same,"effect on the toxicity of curcumin (25 μM), LDH release","HL-60 cells [9]; HL-60 cells, 48 hours, compound 25 μM (FIG. 20A)",potentiated the toxicity of curcumin
same,"LDH release, % of control at 50 µM","HL-60 cells [9]; Homo sapiens, HL-60, 50 μM, 48 hours treatment, read-out: LDH rel. % con.",195%

# Source: patent US7790762B2, “Compounds and methods for thiol-containing compound efflux and cancer treatment” (National Jewish Health, priority 2002, dated 2010)
